Molecules are shown by their SMILES. Converted amounts (≈) assume the structure as drawn.

The term AUC denotes the area under the concentration-time curve, a measure of exposure. Low readings indicate low exposure, high ones high exposure. One may read the half-life as the time in which the quantity being followed falls by half. One may read the kinetic solubility as solubility judged after dilution from a stock solution rather than from solid.

The nature of data set [1]: Volume of distribution in Sprague-Dawley rat at 1 mg/kg, iv or 5 mg/kg, po. In kind it is ADME, organism-based. The settings on record: in vivo.
A short description of data set [2]: AUC in Sprague-Dawley rat at 5 mg/kg, po. In kind it is ADME, organism-based. The settings on record: in vivo.
Data set [3] in a line: Oral bioavailability in Sprague-Dawley rat at 5 mg/kg. Conditions: in vivo. In kind it is ADME, organism-based.
A short description of data set [4]: Permeability of compound. Conditions: not told; read-out: permeability. In kind it is ADME.
Data set [5] is described as follows: Half life in Sprague-Dawley rat at 1 mg/kg, iv or 5 mg/kg, po. In kind it is ADME, organism-based. Conditions: in vivo.
Data set [6] in a line: Solubility of compound by CLND method. In kind it is physicochemical.

`CS(=O)(=O)N1CCC(NC(=O)c2cc(C3CC3)on2)CC1` had a Vd in data set [1] of 1.2 L/kg. In addition, the AUC in data set [2] was 2142 ng·h/mL. In data set [3], this molecule returned an F of 79%. The Papp in data set [4] amounted to 12 ×10⁻⁶ cm/s. In data set [5], the half-life was 2.5 h. The molecule further gave a kinetic solubility in data set [6] of 55 µM (≈ 17.2 µg/mL).

The values above are taken from ChEMBL document CHEMBL4334548, “Discovery of Isoxazole Amides as Potent and Selective SMYD3 Inhibitors” (ACS Med Chem Lett, 2020).
